Measurements from PMC2873402, “Discovery of High-Affinity Protein Binding Ligands – Backwards” (PLoS ONE, 2010).
Entries after “also recorded” stand apart in the source; their conditions may differ. Bridge positions count the residues as written; N and C are the ends. Ends that are not written are not given here. I, II: the chains in the order shown. * marks the point of attachment. StBu = CC(C)(C)S*

What was measured:
[1] = test system: 8,303 recombinant human proteins; assay: Protein array (ProtoArray) screen of synbodies; assay type: binding; details: 200 nM biotin synbody, Alexa-555 streptavidin detection, background-subtracted fluorescence
From the text: To test this approach, a candidate synbody was constructed using two peptides, […] and […], referred to as peptides 1 and 2, respectively. The sequences of the first 17 aa of these peptides were generated using a random number generator and three constant positions on the C-terminus that served as a spacer between the linker scaffold and the active portion of each peptide. A divergent synthetic method was used in which peptide 1 was synthesized from C to N terminus from the α-amine of lysine and peptide 2 was synthesized from the ε-amine of lysine (Figure 2A, Materials and Methods S1, Figure S1). The synbody was tagged on the C-terminus with biotin and screened against a Life Technologies ProtoArray™. ProtoArrays are nitrocellulose coated slides onto which 8,303 recombinant human proteins have been spotted. After a 2-hour incubation, the array was washed and bound synbody was detected using fluorescently labeled streptavidin. […]
Synbodies were screened on an Invitrogen ProtoArray™ (Life Technologies, Carlsbad, CA, USA) detected with Alexa-555 labeled streptavidin (Life Technologies), and scanned using a Perkin Elmer ProScan Array HTP. The spots were analyzed using GenePix Pro (Molecular Devices, Sunnyvale, CA, USA) and data were processed using Genespring GX (Agilent Technologies, Santa Clara, CA, USA). […]

AKT1 = AKT1 (Homo sapiens, UniProt P31749); assay: SPR screening against immobilized AKT1; assay type: binding; parameters: purchased Life Technologies; details: 100 nM synbody, Biacore T-100, CM5 amine coupling, 25°C immobilization, 90 s association, 240 s dissociation
Method: The synbody (100nM concentration) was screened by Surface Plasmon Resonance (SPR) against immobilized AKT1 and GRP58 on a Biacore T-100 SPR. The synbody appeared to have high affinity for AKT1 and low affinity for GRP58 (Figure S2). To accurately determine the binding kinetics of the synbody-AKT1 complex, several concentrations of synbody were injected over a low-density surface of biotin-labeled AKT1 captured on a Neutratvidin SPR chip using a Biacore A-100.
SPR screening of the synbody against AKT1 and GRP58 was performed on a Biacore T-100 (GE Healthcare, Piscataway, NJ, USA). The series S sensor chip CM5, amine coupling reagents and HBS-EP were obtained from GE Healthcare. A standard amine immobilization protocol was performed at 25°C using NaHCO3 (10mM in 150mM NaCl, pH 4.5) as the immobilization buffer. The CM-5 dextran chip was activated by a 10 minute injection of a freshly prepared 1∶1 solution of 400 mM 1-ethyl-3-(3-dimethylaminopropyl)-carbodimide (EDC): 100 mM N-hydroxysuccimide (NHS) in water. The NHS-carboxy groups of the dextran surface were treated with a solution of AKT1 or GRP58 (25 µg/ml) in sodium acetate (pH 5.0) for 8 mins at a flow rate of 10 µl/min. Any residual active sites were then quenched by a 5 min pulse of ethylene diamine (1M, pH 8.5). […]

Sequence of AKT1 (P31749 whole entry): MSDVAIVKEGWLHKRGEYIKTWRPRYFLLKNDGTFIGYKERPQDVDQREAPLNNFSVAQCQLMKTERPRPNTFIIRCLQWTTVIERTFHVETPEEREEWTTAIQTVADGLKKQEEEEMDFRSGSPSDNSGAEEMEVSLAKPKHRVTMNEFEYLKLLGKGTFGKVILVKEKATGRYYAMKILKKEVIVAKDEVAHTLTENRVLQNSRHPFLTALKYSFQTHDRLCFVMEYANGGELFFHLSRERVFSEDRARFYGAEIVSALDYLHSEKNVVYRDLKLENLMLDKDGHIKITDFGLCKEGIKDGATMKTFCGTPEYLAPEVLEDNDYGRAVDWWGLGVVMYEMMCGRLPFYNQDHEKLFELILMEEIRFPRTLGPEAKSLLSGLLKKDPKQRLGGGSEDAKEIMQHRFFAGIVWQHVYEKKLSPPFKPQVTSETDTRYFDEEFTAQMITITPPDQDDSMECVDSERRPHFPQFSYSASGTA

“I: AHKVVPQRQIRHAYNRYGSGKC(StBu)-NH2 / II: FRGWAHIFFGPHVIYRGGSG (amide I:21-II:C) [synbody]” was tested, and the “proteins bound on protein array” value [1] was “bound few proteins on the array; also recorded: bound several different proteins including PCCA, CASZ1, GRP58, NOB1, and AKT1” and the “affinity for AKT1 by SPR screening” value (AKT1) was “high affinity”.
